# Patent US20220081444A1, “6,7-DIHYDRO-4H-PYRAZOLO[1,5-A]PYRAZINE INDOLE-2-CARBOXAMIDES ACTIVE AGAINST THE HEPATITIS B VIRUS (HBV)” (AiCuris GmbH & Co. KG, priority 2018, published 2022)
# Where a name gives a salt, the structure may show the parent alone. Read-outs that look alike come from different tables or passages of the source.
# Columns and labels:
# HBV = conditions: read-out: Cell Activity (EC50)
# HepAD38 cells = experiment: Cell viability assay (AlamarBlue cytotoxicity); conditions: HepAD38 cells in the presence of 0.3 μg/ml tetracycline, six days incubation
# in vitro = conditions: human
# [1] = Hepatitis B virus, HePAD38, 144 h
compound,measurement,setting,value
"3-yl)methyl]-4H,5H, 6H,7H-pyrazolo[1,5-a]pyrazin-2-amine [Example 25]",EC50,"HBV; HBV DNA in HepAD38 supernatant at day 6, qPCR",< 1000 nM
same,CC50,HepAD38 cells,> 10 µM
"CCc1cc(F)cc2[nH]c(C(=O)N3CCn4nc(NCC5CCOC5)cc4C3)cc12 (stereo not shown) [Example 29, 5-(4-ethyl-6-fluoro-1H-indole-2-carbonyl)-N-[(oxolan-3-yl)methyl]-4H,5H,6H,7H-pyrazolo[1,5-a]pyrazin-2-amine]",EC50,HBV; [1],< 1000 nM
same,CC50,in vitro,> 10 µM
"CC1(S(=O)(=O)Nc2cc3n(n2)CCN(C(=O)c2cc4ccccc4[nH]2)C3)CC1 [Example 44, N-[5-(1H-indole-2-carbonyl)-4H,5H,6H,7H-pyrazolo[1,5-a]pyrazin-2-yl]-1-methylcyclopropane-1-sulfonamide]",EC50,HBV; [1],< 1000 nM
same,CC50,in vitro,> 10 µM
"O=C(Nc1cc2n(n1)CCN(C(=O)c1cc3ccccc3[nH]1)C2)C1CC2CC1CN2 (stereo not shown) [Example 82, N-[5-(1H-indole-2-carbonyl)-4H,5H,6H,7H-pyrazolo[1,5-a]pyrazin-2-yl]-2-azabicyclo[2.2.1]heptane-5-carboxamide dihydrochloride]",EC50,HBV; [1],1000 to 10000 nM
same,CC50,in vitro,> 10 µM
"O=C(Nc1cc2n(n1)CCN(C(=O)c1cc3ccccc3[nH]1)C2)[C@H]1CCNC[C@@H]1F [Example 86, (3R,4R)-3-fluoro-N-[5-(1H-indole-2-carbonyl)-4H,5H,6H,7H-pyrazolo[1,5-a]pyrazin-2-yl]piperidine-4-carboxamide dihydrochloride]",EC50,HBV; [1],< 1000 nM
same,CC50,in vitro,> 10 µM
